US8507545B2, “Cytotoxic T cell activator comprising EP4 agonist” (National University Corporation, Hamamatsu University …, priority 2007, dated 2013)

Key:
TRP-2-specific CTLs = test: Activation of cytotoxic T cells in isolated Langerhans cells co-cultured with lymphocytes; format: cell-based, C57BL/6(B6) mouse
Protocol: A given area of an auricle epidermal sheet was removed from the corneal layer of one auricle of each C57BL/6(B6) mouse, and trypsinized to yield an epidermal cell suspension. The epidermal cell suspension obtained was subjected to panning using an antibody specific for I-A^b antigen to isolate epidermal Langerhans cells. After each test substance (TRP-2 (concentration; 10 μg/mL) and Compound A-(1) (1 μM)) was added to the Langerhans cells isolated (cell density; 10^5 cells per mL), the cells were cultured with a medium (cRPMI1640 medium; Sigma-Aldrich Japan). Half a day later, the cells were co-cultured with splenocytic lymphocytes isolated from […] for 7 days. Subsequently, by a flowcytometric analysis (FACScaliber; Becton, Dickinson and Company.) using a tetramer (Medical & Biological Laboratories Co., Ltd.), the frequency of TRP-2-specific CTLs was determined relative to the total number of mononucleocytes in the medium as 100. Three experimental groups were established: (1) a group with no treatment, (2) a group with the addition of TRP-2, and (3) a group with the addition of both TRP-2 and Compound A-(1).

B16 melanoma cells [1] = test: Melanoma growth suppressing action; format: in vivo, B6 mouse; conditions: for tumor diameter compared with the experimental group (1): FIG. 1
Protocol: The corneal layer was removed from the right auricle of each B6 mouse by TS in the same manner as Example 1, and test substances (TRP-2 and Compound A-(1)) were applied there; 2 weeks later, the left auricle was treated in the same manner. The test substances applied to both ears were used in the same combination; TRP-2 was applied at 10 μg for one side of each auricle, and Compound A-(1) was applied at 20 μl, of 100 μM solution for one side of each auricle. Four days after the above-described treatment, each mouse received 2×10^5 B16 melanoma cells (RIKEN's Cell Bank) by subcutaneous transplantation, and examined for tumor growth. Experimental groups were established as in Example 1(1) (5 animals in each group).
Tumor diameter (mm), as an index of tumor growth, was measured in each group at various days after inoculation of B16 melanoma cells; the results are shown in FIG. 1.

B16 melanoma cells [2] = test: Life-prolonging effect in melanoma-inoculated mice; format: in vivo, B6 mice; conditions: 10 animals in group
Protocol: 2×10^5 B16 melanoma cells were transplanted to B6 mice in the same manner as Example 3. On day 5 after transplantation, the right auricle of each B6 mouse was treated with each test substance (TRP-2 (10 μg for one side of each auricle), Compound A-(1) (20 μL of 100 μM solution for one side of each auricle) by the same method as Example 3. Ten days later, the left auricle was treated in the same manner, and the mice in each experimental group were examined for mortality. Three experimental groups were established: (1) a group undergoing TS alone, (2) a group undergoing TS followed by application of Compound A-(1), and (3) a group undergoing TS followed by application of TRP-2 and Compound A-(1) (10 animals in each group).

[3] = TS followed by application of Compound A-(1) alone, experimental group (3)
[4] = TS followed by application of TRP-2 and Compound A-(1), experimental group (4)

COCc1cccc(C[C@H](O)/C=C/[C@H]2[C@H](O)CC(=O)[C@@H]2SCCCSCC(=O)O)c1 [Compound A-(1), 11α,15α,-dihydroxy-9-oxo-16-(3-methoxymethylphenyl)-17,18,19,20-tetranol-3,7-dithiaprost-13E-enoic acid]
decreased: tumor growth rates (B16 melanoma cells [1]; [3]) | tumor growth rates (B16 melanoma cells [1]; [4])
equivalent: action of inducing TRP-2-specific CTLs compared with TRP-2 (TRP-2-specific CTLs; isolated Langerhans cells)
4 animals: number of surviving individuals (B16 melanoma cells [2]; day 46 after B16 melanoma cells inoculation, TS followed by TRP-2 and Compound A-(1))
2 animals: number of surviving individuals (B16 melanoma cells [2]; day 35 after B16 melanoma cells inoculation, TS followed by Compound A-(1)) | number of surviving individuals (B16 melanoma cells [2]; day 37 after B16 melanoma cells inoculation, TS followed by Compound A-(1)) | number of surviving individuals (B16 melanoma cells [2]; day 38 after B16 melanoma cells inoculation, TS followed by Compound A-(1)) | number of surviving individuals (B16 melanoma cells [2]; day 48 after B16 melanoma cells inoculation, TS followed by TRP-2 and Compound A-(1)) | number of surviving individuals (B16 melanoma cells [2]; day 50 after B16 melanoma cells inoculation, TS followed by TRP-2 and Compound A-(1)) | number of surviving individuals (B16 melanoma cells [2]; day 52 after B16 melanoma cells inoculation, TS followed by TRP-2 and Compound A-(1)) | number of surviving individuals (B16 melanoma cells [2]; day 55 after B16 melanoma cells inoculation, TS followed by TRP-2 and Compound A-(1))
7 animals: number of surviving individuals (B16 melanoma cells [2]; day 27 after B16 melanoma cells inoculation, TS followed by Compound A-(1)) | number of surviving individuals (B16 melanoma cells [2]; day 29 after B16 melanoma cells inoculation, TS followed by Compound A-(1)) | number of surviving individuals (B16 melanoma cells [2]; day 31 after B16 melanoma cells inoculation, TS followed by Compound A-(1)) | number of surviving individuals (B16 melanoma cells [2]; day 33 after B16 melanoma cells inoculation, TS followed by Compound A-(1))
6.6: Ratio of TRP-2-specific CTLs (TRP-2-specific CTLs; addition of both TRP-2 (10 μg/mL) and Compound A-(1) (1 μM), 7 days co-culture, relative to total mononucleocytes in the medium as 100)
did not take in any animals: take of B16 melanoma cells (B16 melanoma cells [1]; TS followed by application of TRP-2 and Compound A-(1), experimental group (4), 5 animals)
1 animals: number of surviving individuals (B16 melanoma cells [2]; day 57 after B16 melanoma cells inoculation, TS followed by TRP-2 and Compound A-(1))
10 animals: number of surviving individuals (B16 melanoma cells [2]; day 16 after B16 melanoma cells inoculation, TS followed by Compound A-(1)) | number of surviving individuals (B16 melanoma cells [2]; day 16 after B16 melanoma cells inoculation, TS followed by TRP-2 and Compound A-(1)) | number of surviving individuals (B16 melanoma cells [2]; day 21 after B16 melanoma cells inoculation, TS followed by Compound A-(1)) | number of surviving individuals (B16 melanoma cells [2]; day 21 after B16 melanoma cells inoculation, TS followed by TRP-2 and Compound A-(1)) | number of surviving individuals (B16 melanoma cells [2]; day 24 after B16 melanoma cells inoculation, TS followed by Compound A-(1)) | number of surviving individuals (B16 melanoma cells [2]; day 24 after B16 melanoma cells inoculation, TS followed by TRP-2 and Compound A-(1)) | number of surviving individuals (B16 melanoma cells [2]; day 27 after B16 melanoma cells inoculation, TS followed by TRP-2 and Compound A-(1)) | number of surviving individuals (B16 melanoma cells [2]; day 29 after B16 melanoma cells inoculation, TS followed by TRP-2 and Compound A-(1)) | number of surviving individuals (B16 melanoma cells [2]; day 31 after B16 melanoma cells inoculation, TS followed by TRP-2 and Compound A-(1)) | number of surviving individuals (B16 melanoma cells [2]; day 33 after B16 melanoma cells inoculation, TS followed by TRP-2 and Compound A-(1)) | number of surviving individuals (B16 melanoma cells [2]; day 35 after B16 melanoma cells inoculation, TS followed by TRP-2 and Compound A-(1)) | number of surviving individuals (B16 melanoma cells [2]; day 37 after B16 melanoma cells inoculation, TS followed by TRP-2 and Compound A-(1)) | number of surviving individuals (B16 melanoma cells [2]; day 38 after B16 melanoma cells inoculation, TS followed by TRP-2 and Compound A-(1))
0 animals: number of surviving individuals (B16 melanoma cells [2]; day 40 after B16 melanoma cells inoculation, TS followed by Compound A-(1)) | number of surviving individuals (B16 melanoma cells [2]; day 42 after B16 melanoma cells inoculation, TS followed by Compound A-(1)) | number of surviving individuals (B16 melanoma cells [2]; day 44 after B16 melanoma cells inoculation, TS followed by Compound A-(1)) | number of surviving individuals (B16 melanoma cells [2]; day 46 after B16 melanoma cells inoculation, TS followed by Compound A-(1)) | number of surviving individuals (B16 melanoma cells [2]; day 48 after B16 melanoma cells inoculation, TS followed by Compound A-(1)) | number of surviving individuals (B16 melanoma cells [2]; day 50 after B16 melanoma cells inoculation, TS followed by Compound A-(1)) | number of surviving individuals (B16 melanoma cells [2]; day 52 after B16 melanoma cells inoculation, TS followed by Compound A-(1)) | number of surviving individuals (B16 melanoma cells [2]; day 55 after B16 melanoma cells inoculation, TS followed by Compound A-(1)) | number of surviving individuals (B16 melanoma cells [2]; day 57 after B16 melanoma cells inoculation, TS followed by Compound A-(1))
5 animals: number of surviving individuals (B16 melanoma cells [2]; day 44 after B16 melanoma cells inoculation, TS followed by TRP-2 and Compound A-(1))
8 animals: number of surviving individuals (B16 melanoma cells [2]; day 40 after B16 melanoma cells inoculation, TS followed by TRP-2 and Compound A-(1)) | number of surviving individuals (B16 melanoma cells [2]; day 42 after B16 melanoma cells inoculation, TS followed by TRP-2 and Compound A-(1))
smaller: tumor diameter compared with the experimental group (1) (B16 melanoma cells [1]; [3]) | tumor diameter compared with the experimental group (1) (B16 melanoma cells [1]; [4])
